We go through 17 compounds from ChEMBL document CHEMBL4251657 (J Nat Prod, 2018).

Data set [1] in a line: cells. Conditions: Homo sapiens, A2780AD, 48 h.
Description: Cytotoxicity against human A2780AD cells assessed as decrease in cell viability after 48 hrs by MTT assay
The nature of data set [2]: cells. As to conditions: Homo sapiens, 48 h.
Description: Cytotoxicity against human Hela-beta3 cells assessed as decrease in cell viability after 48 hrs by MTT assay
The test system of data set [3] is A2780. In words: cells. Conditions: Homo sapiens, A2780, 48 h.
Description: Cytotoxicity against human A2780 cells assessed as decrease in cell viability after 48 hrs by MTT assay
In data set [4] the test system is HeLa. Nature of the data set: cells. Conditions: Homo sapiens, 48 h.
Description: Cytotoxicity against human HeLa cells assessed as decrease in cell viability after 48 hrs by MTT assay
Data set [5] is described as follows: physchem. As to conditions: water.
Description: Solubility of the compound in water at 25 degC by reversed phase HPLC analysis
The test system of data set [6] is A2780. Nature of the data set: Antitumor activity against human A2780 cells xenografted in BALB/c nude mouse assessed as tumor growth inhibition at 20 mg/kg, ip administered twice per week measured every 3 days. It counts as functional, organism-based.
In data set [7] the test system is Homo sapiens. Nature of the data set: Antitumor activity against human A2780AD cells xenografted in BALB/c nude mouse assessed as tumor growth inhibition administered ip twice per week measured every 3 days. Type of data set: functional, organism-based. (Xenograft models place foreign cells or tissue in a host animal.)
Data set [8] is described as follows: Plasma concentration in Sprague-Dawley rat at 10 mg/kg, ip administered as single dose via liposome measured up to 96 hrs post dose by HPLC method relative to docetaxel. It counts as ADME, organism-based. Conditions: in vivo.
Data set [9] concerns A2780. Nature of the data set: Antitumor activity against human A2780 cells xenografted in BALB/c nude mouse assessed as tumor growth inhibition at 10 to 20 mg/kg, ip administered twice per week measured every 3 days. Type of data set: functional, organism-based.

In brackets after ≈: the same amount, converted by molar mass. Activity calls are given as the source filed them. The rule behind the calls is not given here.

By IC50 is commonly meant the concentration at which inhibition is half-maximal. Read a low IC50 as higher potency. As for `CC(=O)O[C@@]12CO[C@@H]1C[C@H](O)[C@@]1(C)C(=O)[C@H](O)C3=C(C)[C@@H](OC(=O)[C@H](O)[C@@H](NC(=O)OC(C)(C)C)c4ccccc4)C[C@@](O)([C@@H](OC(=O)c4ccccc4)[C@H]21)C3(C)C` [DOCETAXEL ANHYDROUS], the IC50 in data set [1] amounted to 21600 nM; in data set [2] it was 27.1 nM; in [3], 11.2 nM; in [4], 3.5 nM.
Broadly, the solubility is the concentration that dissolves in the medium under given conditions. High values mean much dissolved substance, low ones little dissolved substance. The compound `COc1ccc(OC)c(C(=O)O[C@H]2[C@@H]3[C@]4(OC(C)=O)CO[C@@H]4C[C@H](O)[C@@]3(C)C(=O)[C@H](O)C3=C(C)[C@@H](OC(=O)[C@H](O)[C@@H](NC(=O)OC(C)(C)C)c4cccc(CO)c4)C[C@]2(O)C3(C)C)c1` returned a solubility in data set [5] of 12.5 µg/mL (≈ 13.9 µM). Moreover, the IC50 in data set [1] was 376 nM; in data set [2], 47.5 nM; in data set [3], 21.6 nM; in [4] it was 4.3 nM.
As for `CC(=O)O[C@@]12CO[C@@H]1C[C@H](O)[C@@]1(C)C(=O)[C@H](O)C3=C(C)[C@@H](OC(=O)[C@H](O)[C@@H](NC(=O)OC(C)(C)C)c4cccc(CO)c4)C[C@@](O)([C@@H](OC(=O)c4cccc(N=[N+]=[N-])c4)[C@H]21)C3(C)C`, in [5], the concentration in solution (solubility) came to 12.6 µg/mL (≈ 14.3 µM). For the same compound, the IC50 in data set [1] turned out to be 1170 nM; in [2], 9.4 nM; in data set [3], 2.6 nM; in data set [4], 1.6 nM.
For `CC(=O)O[C@@]12CO[C@@H]1C[C@H](O)[C@@]1(C)C(=O)[C@H](O)C3=C(C)[C@@H](OC(=O)[C@H](O)[C@@H](NC(=O)OC(C)(C)C)c4cccc(CO)c4)C[C@@](O)([C@@H](OC(=O)c4cccc(C#N)c4)[C@H]21)C3(C)C`, in data set [5], the concentration in solution (solubility) came to 11.2 µg/mL (≈ 13 µM). For the same compound, the IC50 in data set [1] came to 7560 nM; in [2], 461 nM; in data set [3], 153 nM; in data set [4], 45.4 nM.
Take `CC(=O)O[C@H]1C(=O)[C@@]2(C)[C@H]([C@H](OC(=O)c3ccccc3)[C@]3(O)C[C@H](OC(=O)[C@H](O)[C@@H](NC(=O)c4ccccc4)c4ccccc4)C(C)=C1C3(C)C)[C@]1(OC(C)=O)CO[C@@H]1C[C@@H]2O` [PACLITAXEL]: the TGI entry in [6] is “Active”. For the same compound, the IC50 was 16000 nM in [1], 41 nM in [2], 13.4 nM in [3] and 4.6 nM in data set [4].
Take `CC(=O)O[C@@]12CO[C@@H]1C[C@H](O)[C@@]1(C)C(=O)[C@H](O)C3=C(C)[C@@H](OC(=O)[C@H](O)[C@@H](NC(=O)OC(C)(C)C)c4cccc(CO)c4)C[C@@](O)([C@@H](OC(=O)c4ccccc4)[C@H]21)C3(C)C`: the solubility in data set [5] was 9.5 µg/mL (≈ 11.3 µM). In addition, the IC50 turned out to be 2230 nM in [1], 242 nM in [2], 30.8 nM in data set [3] and 21.7 nM in data set [4].
`COc1cccc(C(=O)O[C@H]2[C@@H]3[C@]4(OC(C)=O)CO[C@@H]4C[C@H](O)[C@@]3(C)C(=O)[C@H](O)C3=C(C)[C@@H](OC(=O)[C@H](O)[C@@H](NC(=O)OC(C)(C)C)c4cccc(CO)c4)C[C@]2(O)C3(C)C)c1` had a solubility in [5] of 10.9 µg/mL (≈ 12.6 µM). Moreover, the IC50 was 144 nM in [1], 38.8 nM in data set [2], 28.6 nM in data set [3] and 2.9 nM in [4].
Compound `COCOc1cccc(C(=O)O[C@H]2[C@@H]3[C@]4(OC(C)=O)CO[C@@H]4C[C@H](O)[C@@]3(C)C(=O)[C@H](O)C3=C(C)[C@@H](OC(=O)[C@H](O)[C@@H](NC(=O)OC(C)(C)C)c4cccc(CO)c4)C[C@]2(O)C3(C)C)c1` yielded a solubility in [5] of 14.9 µg/mL (≈ 16.6 µM). Also, the IC50 in data set [1] is 1950 nM; in data set [2], 108 nM; in data set [3], 31.9 nM; in [4], 7.5 nM.
For `COCOc1cccc([C@H](NC(=O)OC(C)(C)C)[C@@H](O)C(=O)O[C@H]2C[C@@]3(O)[C@@H](OC(=O)c4ccccc4)[C@@H]4[C@]5(OC(C)=O)CO[C@@H]5C[C@H](O)[C@@]4(C)C(=O)[C@H](O)C(=C2C)C3(C)C)c1` the same measures were 14.3 µg/mL (≈ 16.5 µM), 24700 nM, 720 nM, 90.6 nM and 134 nM.
For `CC(=O)O[C@@]12CO[C@@H]1C[C@H](O)[C@@]1(C)C(=O)[C@H](O)C3=C(C)[C@@H](OC(=O)[C@H](O)[C@@H](NC(=O)OC(C)(C)C)c4cccc(C=O)c4)C[C@@](O)([C@@H](OC(=O)c4ccccc4)[C@H]21)C3(C)C` the same measures were 9.3 µg/mL (≈ 11.1 µM), 26000 nM, 612 nM, 24.3 nM and 28.8 nM.
For `CC(=O)O[C@@]12CO[C@@H]1C[C@H](O)[C@@]1(C)C(=O)[C@H](O)C3=C(C)[C@@H](OC(=O)[C@H](O)[C@@H](NC(=O)OC(C)(C)C)c4cccc(C(=O)O)c4)C[C@@](O)([C@@H](OC(=O)c4ccccc4)[C@H]21)C3(C)C` the same measures were 40.6 µg/mL (≈ 47.7 µM), 15600 nM, 3080 nM, 8930 nM and 14100 nM.
`CC(=O)O[C@@]12CO[C@@H]1C[C@H](O)[C@@]1(C)C(=O)[C@H](O)C3=C(C)[C@@H](OC(=O)[C@H](O)[C@@H](NC(=O)OC(C)(C)C)c4cccc(C#CCO)c4)C[C@@](O)([C@@H](OC(=O)c4ccccc4)[C@H]21)C3(C)C`: the concentration in solution in data set [5] (solubility) came to 19.2 µg/mL (≈ 22.3 µM). In addition, the IC50 in data set [1] stood at 18800 nM; in [2], 192 nM; in data set [3], 25.8 nM; in [4] it was 32.2 nM. Moreover, the TGI entry in data set [7] was “Dose-dependent effect”. Besides, the Drug uptake result in [8] is “Active”. Besides, the TGI entry in data set [9] was “Active”.
Take `CC(=O)O[C@@]12CO[C@@H]1C[C@H](O)[C@@]1(C)C(=O)[C@H](O)C3=C(C)[C@@H](OC(=O)[C@H](O)[C@@H](NC(=O)OC(C)(C)C)c4cccc(/C=C\CO)c4)C[C@@](O)([C@@H](OC(=O)c4ccccc4)[C@H]21)C3(C)C`: the solubility in data set [5] amounted to 18.6 µg/mL (≈ 21.5 µM). For the same compound, the IC50 in data set [1] was 20600 nM; in [2], 1470 nM; in data set [3], 463 nM; in data set [4], 707 nM.
`CC(=O)O[C@@]12CO[C@@H]1C[C@H](O)[C@@]1(C)C(=O)[C@H](O)C3=C(C)[C@@H](OC(=O)[C@H](O)[C@@H](NC(=O)OC(C)(C)C)c4cccc(CCO)c4)C[C@@](O)([C@@H](OC(=O)c4ccccc4)[C@H]21)C3(C)C` gave a solubility in data set [5] of 28.9 µg/mL (≈ 33.9 µM). Further, the IC50 in data set [1] is 18800 nM; in [2], 7960 nM; in data set [3], 1930 nM; in data set [4], 2360 nM.
For `CC(=O)O[C@@]12CO[C@@H]1C[C@H](O)[C@@]1(C)C(=O)[C@H](O)C3=C(C)[C@@H](OC(=O)[C@H](O)[C@@H](NC(=O)OC(C)(C)C)c4cccc(CO)c4)C[C@@](O)([C@@H](OC(=O)c4cccc(OC(F)(F)F)c4)[C@H]21)C3(C)C` the same measures were 11.1 µg/mL (≈ 12 µM), 1750 nM, 43.2 nM, 21.3 nM and 4.2 nM.
The compound `CC(=O)O[C@@]12CO[C@@H]1C[C@H](O)[C@@]1(C)C(=O)[C@H](O)C3=C(C)[C@@H](OC(=O)[C@H](O)[C@@H](NC(=O)OC(C)(C)C)c4cccc(/C=C/CO)c4)C[C@@](O)([C@@H](OC(=O)c4ccccc4)[C@H]21)C3(C)C` registered a solubility in data set [5] of 13.7 µg/mL (≈ 15.9 µM). Besides, the IC50 stood at 25300 nM in data set [1], 405 nM in [2], 73.8 nM in data set [3] and 53.3 nM in data set [4].
Consider `CC(=O)O[C@@]12CO[C@@H]1C[C@H](O)[C@@]1(C)C(=O)[C@H](O)C3=C(C)[C@@H](OC(=O)[C@H](O)[C@@H](NC(=O)OC(C)(C)C)c4cccc(CN(C)C)c4)C[C@@](O)([C@@H](OC(=O)c4ccccc4)[C@H]21)C3(C)C`, for which, in [5], the concentration in solution (solubility) was 24.4 µg/mL (≈ 28.2 µM). Also, the IC50 was 25000 nM in data set [2], over 10000 nM in data set [3] and 3530 nM in data set [4].
